What was measured:
FKBP12 = FKBP12 (Homo sapiens, UniProt P62942); test: Competitive fluorescence polarization assay, binding to FKBP12; details: for FKBP12 ligand efficiency (LE): LE=(ΔG)/N, ΔG=−RTlnKi, RT=0.6, N non-hydrogen atoms; for Ki: fluorescence polarization, fluorescent tracer 20 nM final, 30 min room temperature
Procedure: (§1) Binding of the bicyclic compounds to FKBPs was measured using a competitive fluorescence polarization
(§2) The compound library ligand was dissolved in DMSO to reach a 100-times concentrated stock solution. This was used for a 1:1 serial dilution in DMSO. […] For FKBP12, -51FK1 and -52FK1 the binding assays were performed in duplicates in the plate format. The competition curves were analyzed by using SigmaPlot11. Data were fitted to a four parameter logistic curve to deduce the IC50 values.

FKBP52 = target: T1, FKBP52 (Homo sapiens, UniProt Q02790); test: Competitive fluorescence polarization assay, binding to FKBP52; details: for Ki: fluorescence polarization, FKBP52FK1, fluorescent tracer 20 nM final, 30 min room temperature; for FKBP52 ligand efficiency (LE): LE=(ΔG)/N, ΔG=−RTlnKi, RT=0.6, N non-hydrogen atoms
T1 construct: 400 nM FKBP51FK1, 1600 nM FKBP52FK1
T1 sequence (Q02790 50-138 limits assumed): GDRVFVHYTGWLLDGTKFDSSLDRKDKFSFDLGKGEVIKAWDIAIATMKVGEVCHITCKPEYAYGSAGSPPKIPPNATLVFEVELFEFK
Procedure: as §1, §2

FKBP51 = target: T2, FKBP51 (Homo sapiens, UniProt Q13451); test: Competitive fluorescence polarization assay, binding to FKBP51; details: for FKBP51 ligand efficiency (LE): LE=(ΔG)/N, ΔG=−RTlnKi, RT=0.6, N non-hydrogen atoms; for Ki: fluorescence polarization, FKBP51FK1, fluorescent tracer 20 nM final, 30 min room temperature
T2 construct: 400 nM FKBP51FK1, 1600 nM FKBP52FK1
T2 sequence (Q13451 42-130 limits assumed): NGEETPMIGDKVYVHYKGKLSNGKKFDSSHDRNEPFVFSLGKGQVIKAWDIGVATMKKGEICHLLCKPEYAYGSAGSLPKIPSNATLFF
Procedure: as §1, §2

Chain of FKBP12 (P62942 whole entry): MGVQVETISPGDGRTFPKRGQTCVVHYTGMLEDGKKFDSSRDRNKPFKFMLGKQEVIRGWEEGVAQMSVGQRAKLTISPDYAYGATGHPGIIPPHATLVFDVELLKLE

SMILES	FKBP12 ligand efficiency (LE) (FKBP12)	Ki (FKBP12) [nM]	Ki (FKBP52) [nM]	FKBP51 ligand efficiency (LE) (FKBP51)	Ki (FKBP51) [nM]	FKBP52 ligand efficiency (LE) (FKBP52)
COc1ccc(OCCOC(=O)C2CCCCN2C(=O)C(=O)c2cc(OC)c(OC)c(OC)c2)cc1OC (centres unmarked) [Compound 3a, 2-(3,4-dimethoxyphenoxyl)ethyl 1-(2-oxo-2-(3,4,5-trimethoxy-phenyl)acetyl)piperidine-2-carboxylate, reference compound]	0.22	300 ± 30	> 100000			
COc1ccc(OCCOC(=O)C2CCCCN2S(=O)(=O)c2cc(Cl)cc(Cl)c2)cc1OC (centres unmarked) [Compound 3b, 2-(3,4-dimethoxyphenoxyl)ethyl 1-(3,5-dichlorophenyisulfonyl)-piperidine-2-carboxylate, reference compound]	0.27	400 ± 6	> 100000			
COc1ccc(OCCOC(=O)C2CCCCN2S(=O)(=O)c2ccc3ncsc3c2)cc1OC (centres unmarked) [Compound 3c, 2-(3,4-dimethoxyphenoxyl)ethyl 1-(benzo[d]thiazol-6-ylsulfonyl)-piperidine-2-carboxylate, reference compound]	0.28	100 ± 0.03	> 100000			
CCOC(=O)C1CCCCN1S(=O)(=O)c1ccc2[nH]c(=O)sc2c1 (centres unmarked) [Compound 3d, ethyl 1-(2-oxo-2,3-dihydrobenzo[d]thiazol-6-ylsulfonyl)piperidine-2-carboxylate, reference compound]	0.38	200 ± 4	> 100000			
COc1ccc(OCCN2CC3CCCC(C2=O)N3C(=O)C(=O)c2cc(OC)c(OC)c(OC)c2)cc1OC (centres unmarked) [Compound 4a, 1-(3-(2-(3,4-dimethoxyphenoxyl)ethyl)-2-oxo-3,9-diazabicyclo[3.3.1]nonan-9-yl)-2-(3,4,5-trimethoxyphenyl)ethane-1,2-dione, reference compound]	0.24	200 ± 10	79400 ± 20000	0.15	51100 ± 7600	0.15
COc1ccc(OCCN2CC3CCCC(C2=O)N3S(=O)(=O)c2cc(Cl)cc(Cl)c2)cc1OC (centres unmarked) [Compound 4b, 9-(3,5-dichlorophenylsulfonyl)-3-(2-(3,4-dimethoxyphenoxyl)ethyl)-3,9-diazabicyclo[3.3.1]nonan-2-one]	0.28	140 ± 10	12200 ± 3700	0.21	8800 ± 1100	0.20
COc1ccc(OCCN2CC3CCCC(C2=O)N3S(=O)(=O)c2ccc3ncsc3c2)cc1OC (centres unmarked) [Compound 4c, 9-(benzo[d]thiazol-6-ylsulfonyl)-3-(2-(3,4-dimethoxyphenoxyl)ethyl)-3,9-diazabicyclo[3.3.1]nonan-2-one]	0.24	900 ± 2000		0.17	64800 ± 12300	
COc1ccc(OCCN2CC3CCCC(C2=O)N3S(=O)(=O)c2ccc3[nH]c(=O)sc3c2)cc1OC (centres unmarked) [Compound 4d, 6-(3-(2-(3,4-dimethoxyphenoxyl)ethyl)-2-oxo-3,9-diazabicyclo[3.3.1]nonan-9-ylsulfonyl)benzo[d]thiazol-2(3H)-one]	0.28	70 ± 0.4		0.19	13900 ± 900	
O=C1NCC2CCCC1N2S(=O)(=O)c1ccc2[nH]c(=O)sc2c1 (centres unmarked) [Compound 4e, 6-(2-oxo-3,9-diazabicyclo[3.3.1]nonan-9-ylsulfonyl)benzo[d]thiazol-2(3H)-one]	0.42	100 ± 0.5	46400 ± 3800	0.27	27000 ± 1700	0.26
CCN1CC2CCCC(C1=O)N2C(=O)C(=O)c1cc(OC)c(OC)c(OC)c1 (centres unmarked) [Compound 4g, 1-(3-ethyl-2-oxo-3,9-diazabicyclo[3.3.1]nonan-9-yl)-2-(3,4,5-trimethoxyphenyl)ethane-1,2-dione, reference compound]	0.26	6300 ± 20	> 100000			
O=C1C2CCCC(CN1c1ccccc1)N2S(=O)(=O)c1ccc(Cl)cc1 (centres unmarked) [Compound 4h]			> 100000		> 100000	
COc1ccc(OCCN2CCC3CCCC(C2=O)N3S(=O)(=O)c2cc(Cl)cc(Cl)c2)cc1OC (centres unmarked) [Compound 5b, 10-(3,5-dichlorophenylsulfonyl)-3-(2-(3,4-dimethoxyphenoxy)ethyl)-3,10-diazabicyclo[4.3.1]decan-2-one]	0.32	10 ± 2	1600 ± 300	0.23	1200 ± 200	0.23
COc1ccc(OCCN2CCC3CCCC(C2=O)N3S(=O)(=O)c2ccc3ncsc3c2)cc1OC (centres unmarked) [Compound 5c, 10-(benzo[d]thiazol-6-ylsulfonyl)-3-(2-(3,4-dimethoxyphenoxyl)ethyl)-3,10-diazabicyclo[4.3.1]decan-2-one]	0.29	30 ± 7	3600 ± 500	0.22	2100 ± 200	0.21
COc1ccc(OCCN2CCC3CCCC(C2=O)N3S(=O)(=O)c2ccc3[nH]c(=O)sc3c2)cc1OC (centres unmarked) [Compound 5d, 6-(3-(2-(3,4-dimethoxyphenoxy)ethyl)-2-oxo-3,10-diazabicyclo[4.3.1]decan-10-ylsulfonyl)benzo[d]thiazol-2(3H)-one]	0.34	1 ± 0.3	1200 ± 200	0.24	300 ± 20	0.22
O=C1NCCC2CCCC1N2S(=O)(=O)c1ccc2[nH]c(=O)sc2c1 (centres unmarked) [Compound 5e, 6-(2-oxo-3,10-diazabicyclo[4.3.1]decan-10-ylsulfonyl)benzo[d]thiazol-2(3H)-one]	0.41	60 ± 2	22600 ± 1000	0.29	9800 ± 500	0.27
CCC(C)(C)C(=O)C(=O)N1C2CCCC1C(=O)N(CCOc1ccc(OC)c(OC)c1)CC2 (centres unmarked) [Compound 5f, 1-(3-(2-(3,4-dimethoxyphenoxyl)ethyl)-2-oxo-3,10-diazabicyclo-[4.3.1]decan-10-yl)-3,3-dimethylpentane-1,2-dione, reference compound]	0.24	1500 ± 100	> 100000		> 100000	
COc1ccc(CCN2CCC3CCCC(C2=O)N3C(=O)C(=O)c2cc(OC)c(OC)c(OC)c2)cc1OC (centres unmarked) [Compound 5h, 1-(3-(3,4-dimethoxyphenethyl)-2-oxo-3,10-diazabicyclo[4.3.1]-decan-10-yl)-2-(3,4,5-trimethoxyphenyl)ethane-1,2-dione, reference compound]	0.21	1500 ± 40	> 100000		> 100000	
COc1ccc(OCCN2CCC3CCCC(C2=O)N3S(=O)(=O)c2cc(Cl)c(O)c(Cl)c2)cc1OC (centres unmarked) [Compound 5i, 10-(3,5-dichloro-4-hydroxyphenylsulfonyl)-3-(2-(3,4-dimethoxyphenoxyl)ethyl)-3,10-diazabicyclo[4.3.1]decan-2-one]	0.24	400 ± 40	3500 ± 400	0.23	1000 ± 100	0.21
C=C[C@H]1CN(CCOc2ccc(OC)c(OC)c2)C(=O)[C@@H]2CCC[C@H]1N2S(=O)(=O)c1cc(Cl)cc(Cl)c1 [Compound 5k, (1S,5S,6R)-10-(3,5-dichlorophenylsulfonyl)-3-(2-(3,4-dimethoxyphenoxyl)ethyl)-5-vinyl-3,10-diazabicyclo[4.3.1]decan-2-one]					2100 ± 400	
C=CC[C@@H]1/C=C(\C)C[C@H](C)C[C@H](OC)[C@H]2O[C@@](O)(C(=O)C(=O)N3CCCC[C@H]3C(=O)O[C@H](/C(C)=C/[C@@H]3CC[C@@H](O)[C@H](OC)C3)[C@H](C)[C@@H](O)CC1=O)[C@H](C)C[C@@H]2OC [FK 506, FK506, reference compound]					28 ± 5	

Source: US9371322B2, “Bicyclic aza-amides for treatment of psychiatric disorders” (MAX-PLANCK-GESELLSCHAFT ZUR FÖRDERUNG DER WISSENSCHAFTEN …, priority 2012, dated 2016)
